Measured values taken from ChEMBL document CHEMBL5338823, “Discovery of Novel 5,6-Dihydro-1,2,4-triazine Derivatives as Efficacious Glucagon-Like Peptide-1 Receptor Agonists” (J Med Chem, 2023).
Calls of active or inactive are those of the source. The rule behind the calls is not given here.

How the values were obtained:
[1] = biological target: T1, Glucagon-like peptide 1 receptor (Homo sapiens, UniProt P43220); experiment: Agonist activity at N-terminal HA-tagged human GLP-1R expressed in HEK293 cells assessed as effect on intracellular cAMP accumulation incubated for 30 mins by LANCA ultra cAMP assay; type: functional, cell-based
T1 sequence (P43220 whole entry): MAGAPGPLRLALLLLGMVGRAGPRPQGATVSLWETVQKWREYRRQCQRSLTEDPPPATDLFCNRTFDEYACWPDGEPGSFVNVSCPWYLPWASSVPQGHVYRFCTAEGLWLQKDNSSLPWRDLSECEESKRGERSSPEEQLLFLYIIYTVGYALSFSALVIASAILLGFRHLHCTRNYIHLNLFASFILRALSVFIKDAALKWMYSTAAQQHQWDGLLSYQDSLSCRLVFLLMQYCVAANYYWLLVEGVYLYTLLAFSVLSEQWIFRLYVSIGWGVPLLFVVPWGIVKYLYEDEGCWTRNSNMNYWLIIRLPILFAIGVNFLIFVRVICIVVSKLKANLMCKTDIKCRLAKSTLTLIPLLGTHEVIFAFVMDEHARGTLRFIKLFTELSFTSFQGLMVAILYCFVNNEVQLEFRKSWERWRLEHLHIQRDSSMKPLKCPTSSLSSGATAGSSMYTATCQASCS

[2] = biological target: hERG (KCNH2) (Homo sapiens, UniProt Q12809); experiment: Inhibition of hERG at 40 uM relative to control
hERG (KCNH2), sequence (Q12809 whole entry): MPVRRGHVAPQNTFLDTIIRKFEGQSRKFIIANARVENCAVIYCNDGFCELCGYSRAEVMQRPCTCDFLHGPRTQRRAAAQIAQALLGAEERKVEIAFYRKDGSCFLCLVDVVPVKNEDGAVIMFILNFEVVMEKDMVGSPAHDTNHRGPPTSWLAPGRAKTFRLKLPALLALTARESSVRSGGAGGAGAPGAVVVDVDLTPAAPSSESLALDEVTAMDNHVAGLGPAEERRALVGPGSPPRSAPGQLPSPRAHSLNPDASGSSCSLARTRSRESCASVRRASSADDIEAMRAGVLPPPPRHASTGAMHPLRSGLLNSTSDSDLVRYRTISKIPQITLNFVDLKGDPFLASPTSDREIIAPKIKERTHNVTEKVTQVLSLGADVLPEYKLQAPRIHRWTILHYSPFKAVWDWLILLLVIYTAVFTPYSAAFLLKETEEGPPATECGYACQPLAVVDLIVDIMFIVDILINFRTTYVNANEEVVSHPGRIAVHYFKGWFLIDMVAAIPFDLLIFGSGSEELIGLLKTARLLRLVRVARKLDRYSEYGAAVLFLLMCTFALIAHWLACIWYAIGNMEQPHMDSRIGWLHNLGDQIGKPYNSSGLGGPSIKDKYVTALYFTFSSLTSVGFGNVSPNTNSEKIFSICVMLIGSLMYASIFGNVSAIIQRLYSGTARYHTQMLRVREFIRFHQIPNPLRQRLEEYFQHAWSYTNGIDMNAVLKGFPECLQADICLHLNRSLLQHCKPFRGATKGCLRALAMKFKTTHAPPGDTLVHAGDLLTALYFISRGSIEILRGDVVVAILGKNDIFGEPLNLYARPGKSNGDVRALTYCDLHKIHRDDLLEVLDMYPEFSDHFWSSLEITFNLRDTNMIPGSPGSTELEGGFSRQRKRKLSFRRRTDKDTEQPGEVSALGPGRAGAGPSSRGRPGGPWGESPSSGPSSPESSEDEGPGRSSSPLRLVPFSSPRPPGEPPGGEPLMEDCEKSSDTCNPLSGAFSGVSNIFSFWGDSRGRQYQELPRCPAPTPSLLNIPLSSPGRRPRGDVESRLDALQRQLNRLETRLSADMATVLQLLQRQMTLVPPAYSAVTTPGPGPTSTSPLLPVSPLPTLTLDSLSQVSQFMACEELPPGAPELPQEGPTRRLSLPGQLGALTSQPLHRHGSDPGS

[3] = Stability in human liver microsomes assessed as half-life at 1 uM measured upto 60 mins in the presence of NADPH by LC-MS/MS analysis; type: ADME, Microsome
[4] = Stability in rat liver microsomes assessed as half-life at 1 uM measured upto 60 mins in the presence of NADPH by LC-MS/MS analysis; type: ADME, Microsome
[5] = Stability in mouse liver microsomes assessed as half-life at 1 uM measured upto 60 mins in the presence of NADPH by LC-MS/MS analysis; type: ADME, Microsome
[6] = Stability in human liver microsomes assessed as intrinsic clearance at 1 uM measured upto 60 mins in the presence of NADPH by LC-MS/MS analysis; type: ADME, Microsome; settings: 1 h
[7] = Stability in rat liver microsomes assessed as intrinsic clearance at 1 uM measured upto 60 mins in the presence of NADPH by LC-MS/MS analysis; type: ADME, Microsome; settings: 1 h
[8] = Stability in mouse liver microsomes assessed as intrinsic clearance at 1 uM measured upto 60 mins in the presence of NADPH by LC-MS/MS analysis; type: ADME, Microsome; settings: 1 h
[9] = biological target: T2, Glucagon-like peptide 1 receptor (Mus musculus) (UniProt O35659); experiment: Activation of mouse GLP-1R
T2 sequence (whole entry): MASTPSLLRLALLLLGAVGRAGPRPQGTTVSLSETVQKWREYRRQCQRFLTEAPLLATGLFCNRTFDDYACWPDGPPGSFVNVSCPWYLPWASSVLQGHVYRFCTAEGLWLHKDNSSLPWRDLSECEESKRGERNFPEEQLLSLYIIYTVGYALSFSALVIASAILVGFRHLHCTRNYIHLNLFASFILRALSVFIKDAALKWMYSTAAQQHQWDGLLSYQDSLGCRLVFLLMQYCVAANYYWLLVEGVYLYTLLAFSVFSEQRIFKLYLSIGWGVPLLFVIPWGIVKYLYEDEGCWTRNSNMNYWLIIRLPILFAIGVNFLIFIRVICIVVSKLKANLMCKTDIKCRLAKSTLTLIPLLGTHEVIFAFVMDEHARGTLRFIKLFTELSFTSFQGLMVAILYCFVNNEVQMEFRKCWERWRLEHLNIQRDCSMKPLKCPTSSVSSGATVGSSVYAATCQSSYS

[10] = system: Mus musculus; experiment: (§1) In vivo agonist activity at GLP-1R in C57BL/6J mouse with human GLP-1R knock-in assessed as reduction in blood glucose level at 1 mg/kg, po pre-treated with compound for 1 hrs followed by glucose administration and measured upto 90 mins by Oral Glucose Tolerance Test; type: functional, organism-based; settings: time <= 150.0 min
[11] = system: Mus musculus; experiment: In vivo agonist activity at GLP-1R in C57BL/6J mouse with human GLP-1R knock-in assessed as reduction in food intake at 30 mg/kg, sc measured after 2.5 to 12 hrs in dark cycle; type: functional, organism-based; settings: time 2.5-12 hrs
[12] = biological target: Voltage-gated inwardly rectifying potassium channel KCNH2 (Homo sapiens, UniProt Q12809); experiment: Inhibition of hERG
Voltage-gated inwardly rectifying potassium channel KCNH2, sequence (Q12809 whole entry): as the sequence (Q12809 whole entry) above

[13] = Drug concentration in C57BL/6J mouse plasma at 5 mg/kg, po measured after 1 hrs by LC-MS/MS analysis; type: ADME, organism-based
[14] = Drug concentration in C57BL/6J mouse plasma at 5 mg/kg, po measured after 4 hrs by LC-MS/MS analysis; type: ADME, organism-based
[15] = Apparent permeability across apical to basolateral side in human Caco-2 cells at 10 uM measured after 95 mins by LC-MS/MS analysis; type: ADME, cell-based
[16] = Half-life in Sprague-Dawley rat at 5 mg/kg, po measured upto 24 hrs by LC-MS/MS analysis; type: ADME, organism-based; settings: in vivo
[17] = Tmax in Sprague-Dawley rat at 5 mg/kg, po measured upto 24 hrs by LC-MS/MS analysis; type: ADME, organism-based; settings: in vivo
[18] = Cmax in Sprague-Dawley rat at 5 mg/kg, po measured upto 24 hrs by LC-MS/MS analysis; type: ADME, organism-based; set-up: time < 24 hrs, dose 5 mg/kg, route po; settings: in vivo
[19] = AUClast in Sprague-Dawley rat at 5 mg/kg, po measured upto 24 hrs by LC-MS/MS analysis; type: ADME, organism-based; set-up: dose 5 mg/kg, time < 24 hrs, route po; settings: in vivo
[20] = biological target: T1, Glucagon-like peptide 1 receptor; experiment: Agonist activity at N-terminal HA-tagged human GLP-1R expressed in HEK293 cells assessed as change in intracellular calcium level by Fluo-4 AM dye based calcium mobilization assay; type: functional, cell-based
[21] = biological target: T1, Glucagon-like peptide 1 receptor; experiment: (§2) Partial agonist activity at N-terminal HA-tagged human GLP-1R expressed in HEK293 cells co-expressing Smbit-beta-arrestin 1/2 and GLP-1R-LgBit assessed as beta-arrestin-1 recruitment measured after 5 mins by bioluminescence based NanoBiT assay; type: functional, cell-based
[22] = biological target: T1, Glucagon-like peptide 1 receptor; experiment: (§3) Partial agonist activity at N-terminal HA-tagged human GLP-1R expressed in HEK293 cells co-expressing Smbit-beta-arrestin 1/2 and GLP-1R-LgBit assessed as beta-arrestin-2 recruitment measured after 5 mins by bioluminescence based NanoBiT assay; type: functional, cell-based
[23] = system: Mus musculus; experiment: as §1, with “administration for 3 hrs and further treated with second glucose dose” for “administration”, “270” for “90”; type: functional, organism-based; settings: time <= 330.0 min
[24] = biological target: T1, Glucagon-like peptide 1 receptor; experiment: as §2, with “Potency index, ratio of danuglipron EC50 to test compound EC50 for partial” for “Partial”; type: functional, cell-based
[25] = biological target: T1, Glucagon-like peptide 1 receptor; experiment: as §3, with “Potency index, ratio of danuglipron EC50 to test compound EC50 for partial” for “Partial”; type: functional, cell-based
[26] = biological target: T1, Glucagon-like peptide 1 receptor; experiment: Potency index, ratio of danuglipron EC50 to test compound EC50 for agonist activity at N-terminal HA-tagged human GLP-1R expressed in HEK293 cells assessed as change in intracellular calcium level by Fluo-4 AM dye based calcium mobilization assay; type: functional, cell-based
[27] = biological target: T3, Gastric inhibitory polypeptide receptor (Homo sapiens) (UniProt P48546); experiment: Agonist activity at GIPR (unknown origin) expressed in HEK293 cells assessed as effect on intracellular cAMP accumulation incubated for 30 mins by LANCA ultra cAMP assay; type: functional, cell-based
T3 sequence (whole entry): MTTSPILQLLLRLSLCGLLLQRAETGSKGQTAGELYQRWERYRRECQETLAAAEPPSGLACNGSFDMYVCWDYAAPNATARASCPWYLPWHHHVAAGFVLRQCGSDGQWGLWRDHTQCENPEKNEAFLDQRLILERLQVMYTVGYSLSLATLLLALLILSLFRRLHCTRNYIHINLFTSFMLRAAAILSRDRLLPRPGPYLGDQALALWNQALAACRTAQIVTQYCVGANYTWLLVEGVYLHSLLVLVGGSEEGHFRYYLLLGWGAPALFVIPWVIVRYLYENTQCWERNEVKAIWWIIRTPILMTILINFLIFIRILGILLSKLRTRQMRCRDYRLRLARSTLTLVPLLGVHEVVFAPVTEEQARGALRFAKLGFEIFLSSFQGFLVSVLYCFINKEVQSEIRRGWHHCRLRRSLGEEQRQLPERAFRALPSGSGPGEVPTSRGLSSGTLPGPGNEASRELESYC

[28] = biological target: T4, Glucagon-like peptide 2 receptor (Homo sapiens) (UniProt O95838); experiment: Agonist activity at GLP-2R (unknown origin) expressed in HEK293 cells assessed as effect on intracellular cAMP accumulation incubated for 30 mins by LANCA ultra cAMP assay; type: functional, cell-based
T4 sequence (whole entry): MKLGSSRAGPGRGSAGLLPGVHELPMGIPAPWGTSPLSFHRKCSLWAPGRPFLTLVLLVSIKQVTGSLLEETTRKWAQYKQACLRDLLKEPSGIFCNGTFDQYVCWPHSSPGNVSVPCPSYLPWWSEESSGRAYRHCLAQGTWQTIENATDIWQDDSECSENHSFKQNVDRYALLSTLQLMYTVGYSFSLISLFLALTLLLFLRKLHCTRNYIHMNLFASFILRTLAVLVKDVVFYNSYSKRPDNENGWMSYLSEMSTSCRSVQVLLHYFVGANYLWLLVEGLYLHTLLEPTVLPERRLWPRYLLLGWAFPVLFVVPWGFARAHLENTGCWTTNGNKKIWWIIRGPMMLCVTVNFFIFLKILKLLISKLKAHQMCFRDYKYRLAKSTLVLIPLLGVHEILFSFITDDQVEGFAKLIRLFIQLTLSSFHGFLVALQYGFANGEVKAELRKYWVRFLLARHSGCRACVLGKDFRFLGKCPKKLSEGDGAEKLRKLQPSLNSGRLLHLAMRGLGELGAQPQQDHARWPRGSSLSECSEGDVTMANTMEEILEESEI

[29] = biological target: Glucagon receptor (Homo sapiens) (UniProt P47871); experiment: Agonist activity at GCGR (unknown origin) expressed in HEK293 cells assessed as effect on intracellular cAMP accumulation incubated for 30 mins by LANCA ultra cAMP assay; type: functional, cell-based
Glucagon receptor (Homo sapiens), sequence (P47871 whole entry): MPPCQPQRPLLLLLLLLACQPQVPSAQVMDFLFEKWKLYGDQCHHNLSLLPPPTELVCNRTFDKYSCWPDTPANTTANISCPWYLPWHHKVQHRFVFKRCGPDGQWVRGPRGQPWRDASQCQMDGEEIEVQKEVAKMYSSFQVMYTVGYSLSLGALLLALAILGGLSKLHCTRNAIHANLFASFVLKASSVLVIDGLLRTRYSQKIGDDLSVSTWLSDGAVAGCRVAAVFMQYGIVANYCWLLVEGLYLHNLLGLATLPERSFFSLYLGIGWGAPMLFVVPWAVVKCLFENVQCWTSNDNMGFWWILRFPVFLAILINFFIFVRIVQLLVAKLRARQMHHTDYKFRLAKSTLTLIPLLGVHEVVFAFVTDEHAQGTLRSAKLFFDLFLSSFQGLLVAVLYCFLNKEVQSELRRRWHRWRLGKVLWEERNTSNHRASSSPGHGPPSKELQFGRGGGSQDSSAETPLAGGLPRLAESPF

Structure (SMILES)	EC50 [1]	inhibition at 40 µM [2]	half-life at 1 µM [3]	half-life at 1 µM [4]	half-life at 1 µM [5]	CLH [6]	CLH [7]	CLH [8]	IC50 [12]	also measured
N#Cc1ccc(COc2cccc(N3C[C@H]4CN(Cc5nc6ccc(C(=O)O)cc6n5C[C@@H]5CCO5)C[C@H]4C3)n2)c(F)c1	> 10000 nM									
N#Cc1ccc(COc2cccc(N3CCC(NCc4nc5ccc(C(=O)O)cc5n4C[C@@H]4CCO4)CC3)n2)c(F)c1	153 nM									
N#Cc1ccc(COc2cccc(C3CCN(Cc4nc5ccc(C(=O)O)cc5n4C[C@@H]4CCO4)CC3)n2)c(F)c1 [DANUGLIPRON]		90%	6.92 h	2.72 h	2.8 h	5 mL/min/g	13 mL/min/g	13 mL/min/g		Activity [9]: inactive; Activity [10]: Active; Activity [11]: Active
COc1cc(Cl)ccc1COc1cccc(N2C=NN(Cc3nc4c(F)cc(C(=O)O)cc4n3C[C@@H]3CCO3)CC2)n1		44%	1.67 h	0.783 h	0.717 h	21 mL/min/g	45 mL/min/g	49 mL/min/g	> 40000 nM	
COc1cc(C(F)(F)F)ccc1COc1cccc(N2C=NN(Cc3nc4c(F)cc(C(=O)O)cc4n3C[C@@H]3CCO3)CC2)n1	0.006 nM	20%	2.87 h	1.25 h	1.28 h	12 mL/min/g	28 mL/min/g	27 mL/min/g	> 40000 nM	concentration at 1 h [13]: 132 ng/mL; concentration at 4 h [14]: 35 ng/mL; Papp A→B at 1.583 h, 10 µM [15]: 0.57 ×10⁻⁶ cm/s; Activity [9]: inactive; half-life [16]: 1.05 h; Tmax [17]: 0.25 h; Cmax [18]: 130 ng/mL; AUC(0-t) at 24 h [19]: 70 ng·h/mL; EC50 [20]: 168 nM; EC50 [21]: 175 nM; EC50 [22]: 136 nM; Activity [10]: Active; Activity [23]: Active; Activity [11]: Active; Ratio EC50 [24]: 10; Ratio EC50 [25]: 10; Ratio EC50 [26]: 10; Activity [27]: inactive; Activity [28]: inactive; Activity [29]: inactive
O=C(O)c1ccc2nc(Cn3ccc(-c4cccc(OCc5ccc(Cl)cc5F)n4)nc3=O)n(C[C@@H]3CCO3)c2c1	> 10000 nM									
N#Cc1ccc(COc2cccc(N3C=NN(Cc4nc5ccc(C(=O)O)cc5n4C[C@@H]4CCO4)CC3)n2)c(F)c1		48%							> 40000 nM	
O=C(O)c1cc(F)c2nc(CN3CCN(c4cccc(OCc5ccc(Cl)c6c5OCC6)n4)C=N3)n(C[C@@H]3CCO3)c2c1		51%	1.5 h	0.6 h	0.517 h	23 mL/min/g	59 mL/min/g	67 mL/min/g	50 nM	
